Measured values as given in patent US20220403326A1, “MEDIA FORMULATIONS AND METHODS FOR PRODUCING PROGENITOR T CELLS” (priority 2019, published 2022).

Experiments:
Format in all cases: cell-based, human
[1] = system: CD34+ HSPCs; test: Surface expression of CD117, CD123 and CD127 after 24 hours of TNFα stimulation; conditions: TNFα stimulation for 24 hours
Protocol: Prior to analysis via flow cytometry, adherent cells were collected from DL4+VCAM-1 surfaces using vigorous pipetting or TrypLE Express Enzyme (ThermoFisher) for 5 minutes at 37° C. Afterwards, cells were rinsed twice with Hanks Balanced Salt Solution (ThermoFisher) plus 2% FBS (HF). Surface antibodies were stained at 1:100-1:300 in HF at room temperature for 15 minutes. Cells were then rinsed once with HF and resuspended in HF with 1:1000 7-AAD to exclude dead cells. Data was acquired with a BD Fortessa™ and compensation and gating was performed with FlowJo™ software and further analysis with the R programming language (version 3.3.2).
Next, the expression of CD117 (c-kit; SCF receptor), CD123 (IL-3 receptor) and CD127 (IL-7 receptor) on CD34+ HSPCs was evaluated in the presence or absence of TNFα stimulation for 24 hours.

[2] = system: CD34+ HSPCs; test: Timed addition of TNFα (day 0, 1, 2 or 3), 7-day culture on DL4+VCAM-1; conditions: late addition of TNFα; day 7
Protocol: For experiments 7 days or longer, HSPCs were seeded at 63-125 cells/mm^2 (equivalent to 2000-4000 cells/well of a 96-well plate) on DL4+VCAM-1-coated surfaces. Experiments shorter than 7 days (CFSE and qPCR) were seeded at 470-780 cells/mm^2 (equivalent to 15,000-25,000 cells/well of a 96-well plate) to provide enough cells for analysis. Cells were cultured in 100 μl/well (32 μl/well for 384-well plate) of Iscove's Modified Eagle Medium (IMDM) supplemented with 20% bovine serum albumin, insulin, and transferrin (BIT 9500) serum substitute (Stemcell Technologies), 1 μg/ml low-density lipoprotein (LDL; Stemcell Technologies), 60 μM ascorbic acid (Sigma), 24 μM 2-mercaptoethanol (Sigma), and 1% penicillin-streptomycin (P/S; Invitrogen). The cytokines used in control condition were SCF, FLT3L, TPO, and IL-7 (also known as the “4F cytokines”, all of which were obtained from R&D Systems), each at a concentration of 20 ng/ml or 100 ng/ml as indicated in the text. All other cytokines were purchased from R&D Systems and used in the combinations and concentrations indicated in the text. For certain experiments, the γ-secretase inhibitor (2S)-N-[(3,5-Difluorophenyl)acetyl]-L-alanyl-2-phenyl] glycine 1,1-dimethylethyl ester (DAPT) or dimethyl sulfoxide (DMSO) was added to media at the concentrations indicated in the text. […]

[3] = system: HSPCs; test: CFSE proliferation assay of HSPCs on DL4+VCAM-1
Protocol: To track the number of cell divisions, cells were stained with 2.5 μM CellTrace™ CFSE (ThermoFisher) in PBS and incubated at 37° C. for 8 minutes. CFSE was quenched by adding 5 times the volume of IMDM+BIT and incubating at 37° C. for 5 minutes. Cells were then resuspended in fresh media and seeded on DL4+VCAM-1 for culture. For analysis, cells were collected and stained for CD34, CD7, and CD5 surface markers as described above and analyzed using flow cytometry. Proliferation was modelled using FlowJo™ software and further analysis was performed with R.
To track the number of cell divisions in response to each of IL-3 and TNFα, the HSPCs were first stained with carboxyfluorescein succinimidyl ester (CFSE). IL-3 or TNFα were added on day 0 and the number of divisions of each cell was analyzed on days 2, 3, 4 and 5.

[4] = system: Notch target genes in CD34+ HSPCs (CD38lo/− and CD38+ fractions); test: qRT-PCR of Notch target and pro-myeloid genes after 5 days of culture
Excerpt: Umbilical cord blood (UCB) was collected from consenting donors at Mount Sinai Hospital, Toronto, Ontario, in accordance with institutional research ethics board policies. Mononuclear cells were fractioned via centrifugation using Lympholyte cell separation media (Cedarlane) and red blood cells were lysed using ammonium-chloride-potassium (ACK) lysing buffer prepared in-house. Mononuclear cells were enriched for >90% CD34+ cells using EasySep™ Human CD34+ Positive Selection Kit (Stemcell Technologies) according to the manufacturer's instructions. For certain experiments, enriched CD34+ cells were stained with CD34-APC and CD38-PE antibodies and sorted into CD34+CD38lo/− and CD34+CD38+ fractions using FACS Aria flow cytometer ([…]).
Cells were lysed and RNA isolated using the PureLink™ RNA Micro Kit (Invitrogen) according to the manufacturer's protocol. cDNA was reverse-transcribed from RNA using SuperScript™ III Reverse Transcriptase (Invitrogen) according to the manufacturer's protocol. cDNA was amplified with primers and FastStart SYBR Green Mastermix (Roche) using QuantStudio™ 6 Flex (Applied Biosystems). Relative expression of individual genes was calculated by the delta cycle threshold (ΔCt) method and normalization using β-actin to control for differences in input cDNA.
TNFα activates the NF-KB pathway, which may regulate Notch target genes or regulate Notch itself (FIG. 3a). To investigate if and how TNFα interacts with Notch, CD34+ HSPCs were first sorted into CD38lo/− and CD38+ fractions, and seeded separately on DL4+VCAM-1 with and without TNFα. Gene expression was measured using qPCR after 5 days of culture (FIG. 3b).

[5] = system: CD34+ HSPCs; test: TPO requirement with or without TNFα, 14-day culture; conditions: 14 days
Protocol: To assess the requirement for TPO in T lineage development, CD34+ HSPCs were analyzed by flow cytometry after 14 days in the presence or absence of TNFα, and further in the presence or absence of TPO.

[6] = both CD38lo/− and CD38+ fractions, normalized to β-actin

Substance: TNFα
- frequency of CD123+ cells [1]: significant increase
- median fluorescent intensity (MFI) of CD123 [1]: increase in the median fluorescent intensity
- CD7+ lymphoid cells [2]: decrease in CD7+ lymphoid cells
- CD14/33+ myeloid lineage cells [2]: increase in CD14/33+ myeloid lineage cells
- proportion of proT2 (CD34+CD7+CD5+) cells ([3]; day 5): higher proportion of proT2 cells
- upregulation of CD7 ([3]; days 2-5): slow to upregulate CD7
- expression of any other Notch target genes or NOTCH1 itself [4]: No significant differences
- SPI1 expression ([4]; CD38lo/− but not CD38+ HSPCs): downregulated SPI1 slightly
- GATA3 expression [4, 6]: upregulated
- TCF7 expression [4, 6]: upregulated
- BCL11b expression ([4]; only CD38lo/− HSPCs): upregulated
- CEBPA expression ([4]; only the CD38+ fraction): significantly downregulated
- T lineage development in the absence of TPO [5]: supports T lineage development in the absence of TPO
